Assay [1] has as its target T1, mitochondrial complex I (Rattus norvegicus, UniProt Q66HF1).
T1 construct: Rat heart mitochondria were isolated using differential centrifugation; from tissue; host or cells: rat heart mitochondria (male Sprague-Dawley rats)
The experiment in a line: Complex I activity (rotenone-sensitive NADH/Co-Q1 oxidation/reduction) in NO donor-treated mitochondria. In kind it is biochemical. The method, then:
Rat heart mitochondria were isolated using differential centrifugation (Tompkins, et al. (2005) Biochim. Biophys. Acta PMID: 16278076). Protein was determined by the Folin-phenol method (Lowry, et al. (1951) J. Bio. Chem. 193:265-75) against a standard curve constructed using bovine serum albumin. Mitochondrial incubations and all subsequent steps were performed in the dark. One mg of mitochondrial protein was suspended in 1 mL of mitochondrial respiration buffer (Tompkins, et al. (2005) supra) containing respiratory substrates glutamate (5 mM), malate (2.5 mM) and succinate (5 mM). […] Samples were centrifuged (5 minutes, 14,000×g), and supernatants removed. The pellets were then resuspended in 1 mL of respiration buffer, and centrifuged again. Pellets were frozen in liquid N2 for subsequent analysis. For ONOO^− treatments, 4 μL of 25 mM ONOO^− stock (100 μM final concentration) was added the cap of the reaction tube, the cap quickly closed and the tube shaken immediately. The process was then repeated twice at 30 second intervals, for a total of 3 additions. Mitochondria were then pelleted, washed, and frozen as for S-nitrosoglutathione samples. Complex I activity was assayed as the rotenone-sensitive oxidation of NADH, at 340 nm in the presence of coenzyme Q1 (Borutaite, et al. (2000) supra). […]

Assay [2] relates to isolated adult rat cardiomyocytes. Nature of the assay: Mitochondrial H+ leak in cardiomyocytes (respiration divided by TMRE fluorescence) after ischemia-reperfusion. The assay is classed as cell-based. The following applies: doses that protect cardiomyocyte viability. The method, then: Cardiomyocyte respiration rate was measured with an oxygen electrode, and membrane potential with the fluorescent dye TMRE (20 nM) in a fluorimeter. H^+ leak is essentially the amount of work the respiratory chain must do to maintain a given membrane potential, and experimentally is derived by dividing respiration by TMRE fluoresence. […] All data are means±SEM, N>3.
Adult rat cardiomyocytes were prepared by collagenase perfusion according to standard methods (Dai, et al. (2001) supra), yielding ˜4×10^6 cells per heart, >80% rod-shaped and viable. Incubations were in a shaking water bath at 37° C., each utilizing 5×10^5 cells in 5 mL of the KH buffers described below. For the control, cells were incubated for 2 hours in oxygenated KH buffer (95/5 O2/CO2). For ischemia-reperfusion treatment, cells were subjected to 30 minutes in oxygenated KH buffer, 1 hour in “ischemic” KH buffer (95/5 N2/CO2, pH 6.5, no glucose), and 30 minutes in oxygenated KH buffer. […] At the end of each protocol, cell viability was assayed (Trypan blue), and mitochondrial function determined (measurement of ΔΨm with the fluorescent probe TMRE, respiration with an O2 electrode, and S-nitrosothiol content by chemiluminescence and biotin-switch.

The structures appear in SMILES notation.

T1 sequence (Q66HF1 24-727, one chain of several): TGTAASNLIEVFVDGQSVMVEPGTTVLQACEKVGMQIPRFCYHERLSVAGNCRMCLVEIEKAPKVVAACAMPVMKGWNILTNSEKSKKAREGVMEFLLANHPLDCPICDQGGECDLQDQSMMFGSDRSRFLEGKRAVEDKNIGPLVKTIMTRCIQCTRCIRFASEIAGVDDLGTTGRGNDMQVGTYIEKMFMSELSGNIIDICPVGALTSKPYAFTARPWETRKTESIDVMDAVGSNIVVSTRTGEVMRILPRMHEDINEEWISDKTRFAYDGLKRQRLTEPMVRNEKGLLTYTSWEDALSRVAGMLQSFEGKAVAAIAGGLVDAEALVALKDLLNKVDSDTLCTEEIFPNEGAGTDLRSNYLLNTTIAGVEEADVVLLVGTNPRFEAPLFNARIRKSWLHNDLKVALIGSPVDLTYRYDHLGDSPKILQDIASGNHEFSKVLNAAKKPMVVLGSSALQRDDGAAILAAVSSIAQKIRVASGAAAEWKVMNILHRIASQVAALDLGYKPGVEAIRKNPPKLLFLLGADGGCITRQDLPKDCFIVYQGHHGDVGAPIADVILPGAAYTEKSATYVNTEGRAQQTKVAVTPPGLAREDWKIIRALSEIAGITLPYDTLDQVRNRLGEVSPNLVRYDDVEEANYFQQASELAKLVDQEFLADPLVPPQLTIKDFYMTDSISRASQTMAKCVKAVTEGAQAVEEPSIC

As to `N[C@@H](CCC(=O)N[C@@H](CSN=O)C(=O)NCC(=O)O)C(=O)O` [S-nitrosoglutathione], in assay [1] (S-nitrosoglutathione treatment of mitochondria, exposure to light), the “complex I inhibition” value is recorded as “complex I inhibition that was reversible by exposure of mitochondria to light”. Also, in assay [1] (dose response 10-500 μM), the “maximum complex I inhibition” value was 20-25%. For the same molecule, the “effect on increase in mitochondrial H+ leak induced by ischemia-reperfusion” value in assay [2] was “prevent large increases in H^+ leak”.
